We go through 10 compounds from article PMC9490060, “Synthesis and evaluation of anticancer activity of quillaic acid derivatives: A cell cycle arrest and apoptosis inducer through NF-κB and MAPK pathways” (Frontiers in Chemistry, 2022).

Bounds are passed on as bounds.

For data set [1], the system named is HCT116 (human colorectal cancer cell line). The experiment in a line: MTT anti-proliferative assay, HCT116. Conditions: means ± SD, n = 3; for IC50: Homo sapiens, HCT-116, 48 h incubation. The format is cell-based. An excerpt:
(§1) The anti-proliferative activities against five human cancer cell lines, including HCT116 (human colorectal cancer cell line), MCF-7 (human breast cancer cell line), SW620 (human colorectal cancer cell line), BEL7402 (human hepatocellular carcinoma cell line), and HepG2 (human hepatocellular carcinoma cell line) were established for all the target compounds using the MTT assay.
(§2) The propidium iodide (PI) and Annexin V-FITC apoptosis detection kit were purchased from Invitrogen (Eugene, OR, United States). 3-(4,5-Dimethylthiazol-2-yl)-2,5-diphenyl-2H-tetrazolium bromide (MTT) was purchased from Sigma-Aldrich Co. (St. Louis, MO, United States). All human cell lines were used in this study, colorectal cancer cell HCT116, colorectal cancer cell SW620, breast cancer cell MCF-7, liver hepatocellular carcinoma cell BEL7402, liver hepatocellular carcinoma HepG2 and normal liver cell L02 were initially purchased from American Type Culture Collection (ATCC, Manassas, VA, United States). RPMI-1640 media, Dulbecco’s modified Eagle’s medium (DMEM), and foetal bovine serum (FBS) were provided from Gibco Company (Grand Island, NY, United States). Cell line MCF-7 and HepG2 were cultivated in DMEM containing 10% (v/v) heat-inactivated FBS, 100 units/ml penicillin and […] streptomycin (Grand Island, NY, United States). Cell lines HCT116, BEL7402, SW620, and L02 were cultivated in RPMI 1640 medium containing 10% (v/v) heat-inactivated FBS, 100 units/ml penicillin, and […] streptomycin. The cells were incubated at 37°C under a 5% CO2 and 90% relative humidity (RH) atmosphere.
(§3) Stock solutions were prepared by diluting target compounds in DMSO at concentrations (1.25, 2.5, 5, and 10 mM). The stock solution was then diluted (1.25, 2.5, 5, and 10 μM) with culture medium, and the concentration of DMSO was controlled not to exceed 0.1%.
(§4) Place the cells in a 96-well plate at an appropriate density to ensure exponential growth (1 × 10^4–1.2×10^4 cells per well) throughout the experiment, and then allow the cells to adhere for 24 h. The cells were then treated with continuous concentrations of each compound (1.25, 2.5, 5, and 10 μM) for 48 h. After 48 h of incubation, 15 μl of MTT solution was added to each well, and the final concentration was 2 mg/ml. Then incubate for another 4 h. After incubation, remove the MTT solution and add […] of DMSO to each well for staining. Shake vigorously for 10 min at room temperature to ensure complete dissolution. The optical density (OD) was read on a microplate reader (ELx 800, BioTek, Highland Park, Winooski, VT, United States) with a wavelength of 492 nm, and then the data was analyzed.

Data set [2] has as its system SW620 (human colorectal cancer cell line). Kind of data set: MTT anti-proliferative assay, SW620. The format is cell-based. Conditions: means ± SD, n = 3; for IC50: Homo sapiens, SW-620, 48 h incubation.
Text: as §1, §2, §3, §4

Data set [3] relates to BEL7402 (human hepatocellular carcinoma cell line). The experiment in a line: MTT anti-proliferative assay, BEL7402. Type of data set: cell-based. Conditions: means ± SD, n = 3; for IC50: Homo sapiens, Bel-7402, 48 h incubation.
Text: as §1, §2, §3, §4

Data set [4] deals with HepG2 (human hepatocellular carcinoma cell line). The experiment in a line: MTT anti-proliferative assay, HepG2. The format is cell-based. Conditions: means ± SD, n = 3; for IC50: Homo sapiens, HepG2, 48 h incubation.
Text: as §1, §2, §3, §4

For data set [5], the system named is MCF-7 (human breast cancer cell line). The experiment in a line: MTT anti-proliferative assay, MCF-7. Type of data set: cell-based. Conditions: means ± SD, n = 3; for IC50: Homo sapiens, MCF7, 48 h incubation.
Text: as §1, §2, §3, §4

In turn, `COc1cc(-c2nnc(COC(=O)[C@]34CCC(C)(C)C[C@H]3C3=CC[C@@H]5[C@@]6(C)CC[C@H](O)[C@@](C)(C=O)[C@@H]6CC[C@@]5(C)[C@]3(C)C[C@H]4O)o2)cc(OC)c1OC` [Compound B5, (5-(3,4,5-trimethoxyphenyl)-1,3,4-oxadiazol-2-yl)methyl (4aR,5R,6aS,6bR,8aR,9S,10S,12aR,12bR,14bS)-9-formyl-5,10-dihydroxy-2,2,6a,6b,9,12a-hexamethyl-1,3,4,5,6,6a,6b,7,8,8a,9,10,11,12,12a,12b,13,14b-octadecahydropicene-4a (2H)-carboxylate] showed a melting point of 136 to 138 °C. The IC50 in data set [1] was found to be 3.81 ± 1.23 µM. Besides, the IC50 in data set [2] is above 10 µM. This compound displayed an IC50 in data set [3] of 7.36 ± 1.45 µM. In data set [4], this compound showed an IC50 of 8.45 ± 2.15 µM. The same compound showed an IC50 in data set [5] above 10 µM.

As for `CC1(C)CC[C@]2(C(=O)OCc3nnc(-c4ccc(Cl)cc4)o3)[C@H](O)C[C@]3(C)C(=CC[C@@H]4[C@@]5(C)CC[C@H](O)[C@@](C)(C=O)[C@@H]5CC[C@]43C)[C@@H]2C1` [Compound B3, (5-(4-chlorophenyl)-1,3,4-oxadiazol-2-yl)methyl (4aR,5R,6aS,6bR,8aR,9S,10S,12aR,12bR,14bS)-9-formyl-5,10-dihydroxy-2,2,6a,6b,9,12a-hexamethyl-1,3,4,5,6,6a,6b,7,8,8a,9,10,11,12,12a,12b,13,14b-octadecahydropicene-4a (2H)-carboxylate], the melting point lay within 132 to 134 °C. In addition, the IC50 in data set [1] came out at 5.01 ± 1.12 µM. The IC50 in data set [2] amounted to 8.18 ± 1.85 µM. Further, the IC50 in data set [3] is above 10 µM. Besides, the IC50 in data set [4] was above 10 µM. In data set [5], this compound registered an IC50 above 10 µM.

With `CC1(C)CC[C@]2(C(=O)OCCn3ncn(-c4ccccc4)c3=O)[C@H](O)C[C@]3(C)C(=CC[C@@H]4[C@@]5(C)CC[C@H](O)[C@@](C)(C=O)[C@@H]5CC[C@]43C)[C@@H]2C1` [Compound C1, 2-(5-oxo-4-phenyl-4,5-dihydro-1H-1,2,4-triazol-1-yl)ethyl (4aR,5R,6aS,6bR,8aR,9S,10S,12aR,12bR,14bS)-9-formyl-5,10-dihydroxy-2,2,6a,6b,9,12a-hexamethyl-1,3,4,5,6,6a,6b,7,8,8a,9,10,11,12,12a,12b,13,14b-octadecahydropicene-4a (2H)-carboxylate], the melting point lay in the range of 174 to 176 °C. Also, it took 4.43 ± 1.34 µM to reach half-maximal inhibition in data set [1] (IC50). This compound returned an IC50 in data set [2] of 6.12 ± 1.56 µM. In data set [3], this compound gave an IC50 above 10 µM. Further, the IC50 in data set [4] is above 10 µM. Besides, in data set [5], the 50% inhibitory concentration (IC50) is above 10 µM.

In turn, `CC1(C)CC[C@]2(C(=O)OCCn3ncn(-c4ccc(F)cc4)c3=O)[C@H](O)C[C@]3(C)C(=CC[C@@H]4[C@@]5(C)CC[C@H](O)[C@@](C)(C=O)[C@@H]5CC[C@]43C)[C@@H]2C1` [Compound C2, 2-(4-(4-fluorophenyl)-5-oxo-4,5-dihydro-1H-1,2,4-triazol-1-yl)ethyl (4aR,5R,6aS,6bR,8aR,9S,10S,12aR,12bR,14bS)-9-formyl-5,10-dihydroxy-2,2,6a,6b,9,12a-hexamethyl-1,3,4,5,6,6a,6b,7,8,8a,9,10,11,12,12a,12b,13,14b-octadecahydropicene-4a (2H)-carboxylate] gave a melting point of 176 to 178 °C. In addition, in data set [1], the IC50 was above 10 µM. In data set [2], this compound showed an IC50 above 10 µM. The compound further had an IC50 in data set [3] above 10 µM. In data set [4], this compound gave an IC50 above 10 µM. In data set [5], this compound gave an IC50 above 10 µM.

`CC1(C)CC[C@]2(C(=O)OCc3nnc(-c4ccccc4)o3)[C@H](O)C[C@]3(C)C(=CC[C@@H]4[C@@]5(C)CC[C@H](O)[C@@](C)(C=O)[C@@H]5CC[C@]43C)[C@@H]2C1` [Compound B1, (5-phenyl-1,3,4-oxadiazol-2-yl)methyl (4aR,5R,6aS,6bR,8aR,9S,10S,12aR,12bR,14bS)-9-formyl-5,10-dihydroxy-2,2,6a,6b,9,12a-hexamethyl-1,3,4,5,6,6a,6b,7,8,8a,9,10,11,12,12a,12b,13,14b-octadecahydropicene-4a (2H)-carboxylate] yielded a melting point of 130 to 132 °C. The IC50 in data set [1] is above 10 µM. Also, the IC50 in data set [2] was above 10 µM. In data set [3], the IC50 was above 10 µM. Moreover, the IC50 in data set [4] is above 10 µM. This compound gave an IC50 in data set [5] above 10 µM.

As for `CC1(C)CC[C@]2(C(=O)OCc3cc(-c4ccccc4)no3)[C@H](O)C[C@]3(C)C(=CC[C@@H]4[C@@]5(C)CC[C@H](O)[C@@](C)(C=O)[C@@H]5CC[C@]43C)[C@@H]2C1` [D, (3-phenylisoxazol-5-yl)methyl (4aR,5R,6aS,6bR,8aR,9S,10S,12aR,12bR,14bS)-9-formyl-5,10-dihydroxy-2,2,6a,6b,9,12a-hexamethyl-1,3,4,5,6,6a,6b,7,8,8a,9,10,11,12,12a,12b,13,14b-octadecahydropicene-4a (2H)-carboxylate], the melting point lay within 176 to 178 °C. Besides, in data set [1] (48 h incubation), the “IC50 values HCT116” value was “no strong activity”. The IC50 in data set [1] is above 10 µM. Moreover, the “IC50 values SW620” value in data set [2] (48 h incubation) is recorded as “no strong activity”. Also, the IC50 in data set [2] was above 10 µM. Moreover, the “IC50 values BEL7402” value in data set [3] (48 h incubation) was “no strong activity”. Moreover, in data set [3], the IC50 is above 10 µM. The “IC50 values HepG2” value in data set [4] (48 h incubation) was “no strong activity”. The same compound yielded an IC50 in data set [4] above 10 µM. In addition, the “IC50 values MCF-7” value in data set [5] (48 h incubation) was “no strong activity”. The same compound showed an IC50 in data set [5] above 10 µM.

For `COc1cc(-n2cc(COC(=O)[C@]34CCC(C)(C)C[C@H]3C3=CC[C@@H]5[C@@]6(C)CC[C@H](O)[C@@](C)(C=O)[C@@H]6CC[C@@]5(C)[C@]3(C)C[C@H]4O)nn2)cc(OC)c1OC` [Compound A8, (1-(3,4,5-trimethoxyphenyl)-1H-1,2,3-triazol-4-yl)methyl (4aR,5R,6aS,6bR,8aR,9S,10S,12aR,12bR,14bS)-9-formyl-5,10-dihydroxy 2,2,6a,6b,9,12a-hexamethyl-1,3,4,5,6,6a,6b,7,8,8a,9,10,11,12,12a,12b,13,14b octadecahydropicene-4a (2H)-carboxylate], the IC50 in data set [1], in data set [2], in data set [3], in data set [4] and in data set [5] was above 10 µM each time.

On to `COc1cc(-n2cnn(CCOC(=O)[C@]34CCC(C)(C)C[C@H]3C3=CC[C@@H]5[C@@]6(C)CC[C@H](O)[C@@](C)(C=O)[C@@H]6CC[C@@]5(C)[C@]3(C)C[C@H]4O)c2=O)cc(OC)c1OC` [Compound C6, 2-(5-oxo-4-(3,4,5-trimethoxyphenyl)-4,5-dihydro-1H-1,2,4-triazol-1-yl)ethyl (4aR,5R,6aS,6bR,8aR,9S,10S,12aR,12bR,14bS)-9-formyl-5,10-dihydroxy-2,2,6a,6b,9,12a-hexamethyl-1,3,4,5,6,6a,6b,7,8,8a,9,10,11,12,12a,12b,13,14b-octadecahydropicene-4a (2H)-carboxylate], for which the IC50 is 5.6 ± 1.55 µM in data set [1]; 7.35 ± 1.7 µM in data set [2]; above 10 µM in data set [3]; above 10 µM in data set [4]; above 10 µM in data set [5].

On to `CC1(C)CC[C@]2(C(=O)O)[C@H](O)C[C@]3(C)C(=CC[C@@H]4[C@@]5(C)CC[C@H](O)[C@@](C)(C=O)[C@@H]5CC[C@]43C)[C@@H]2C1` [QA, quillaic acid], for which the IC50 in data set [1], in data set [2], in data set [3], in data set [4] and in data set [5] was above 10 µM throughout.

As for `COc1ccc(-n2cc(COC(=O)[C@]34CCC(C)(C)C[C@H]3C3=CC[C@@H]5[C@@]6(C)CC[C@H](O)[C@@](C)(C=O)[C@@H]6CC[C@@]5(C)[C@]3(C)C[C@H]4O)nn2)cc1OC` [Compound A7, (1-(3,4-dimethoxyphenyl)-1H-1,2,3-triazol-4-yl)methyl (4aR,5R,6aS,6bR,8aR,9S,10S,12aR,12bR,14bS)-9-formyl-5,10-dihydroxy-2,2,6a,6b,9,12a-hexamethyl-1,3,4,5,6,6a,6b,7,8,8a,9,10,11,12,12a,12b,13,14b-octadecahydropicene-4a (2H)-carboxylate], the IC50 in data set [1], in data set [2], in data set [3], in data set [4] and in data set [5] was above 10 µM in each case.
